Source: patent US20090203753A1, “7-(2-amino-1-hydroxy-ethyl)-4-hydroxybenzothiazol-2(3H)-one-derivatives as beta2 adrenoreceptor agonists” (AstraZeneca AB, priority 2005, published 2009)

How the values were obtained:
β2 receptor [1] = biological target: T1, β2 receptor (Homo sapiens, UniProt P07550); assay: β2 mediated cAMP production in H292 cells, AlphaScreen cAMP detection (10 minutes with test compound); format: cell-based
T1 construct: endogenous in cells; host or cells: H292 cells
Protocol: H292 cells were grown in RPMI (Roswell Park Memorial Institute) medium containing, 10% (v/v) FBS (foetal bovine serum) and 2 mM L-glutamine. Cells were grown in 225 cm2 flasks containing 25 mL media in a humidified incubator at 37° C., 5% CO2. Cells were harvested from the flask and passaged at a 1 in 10 dilution once per week.
The media from flasks containing H292 cells was removed, rinsed with 10 mL PBS (phosphate buffered saline) and replaced with 10 mL Accutase™ cell detachment solution. Flasks were incubated for 15 minutes in a humidified incubator at 37° C., 5% CO2. The cell suspension was counted and the cells re-suspended in RPMI media (containing 10% (v/v) FBS and 2 mM L-glutamine) at 0.05×10^6 cells per mL. 5000 cells in 100 μL were added to each well of a tissue-culture-treated 96-well plate and the cells incubated overnight in a humidified incubator at 37° C., 5% CO2. The culture media was removed, washed twice with 100 μL assay buffer and replaced with 50 μL assay buffer. Cells were rested at room temperature for 20 minutes after which time 25 μL of rolipram (1.2 mM made up in assay buffer containing 2.4% (v/v) dimethylsulphoxide) was added. Cells were incubated with rolipram for 10 minutes after which time test compounds (made up as ×4 concentrated stocks in assay buffer containing 4% (v/v) dimethylsulphoxide) were added and the cells were incubated for 10 minutes at room temperature. Final rolipram concentration in the assay was 300 μM and final vehicle concentration was 1.6% (v/v) dimethylsulphoxide. The reaction was stopped by removing supernatants, washing once with 100 μL assay buffer and replacing with 50 μL lysis buffer. The cell monolayer was frozen at −80° C. for 30 minutes (or overnight).
(§1) The concentration of cAMP (cyclic adenosine monophosphate) in the cell lysate was determined using the AlphaScreen™ methodology. The frozen cell plate was thawed for 20 minutes on a plate shaker then 10 μL of the cell lysate was transferred to a 96-well white plate. 40 μL of mixed AlphaScreen™ detection beads (containing equal volumes of donor beads (pre-incubated with biotinylated cAMP in the dark for 30 minutes) and acceptor beads), was added to each well and the plate incubated at room temperature for 10 hours in the dark. The AlphaScreen™ signal was measured using an EnVision spectrophotometer (Perkin-Elmer Inc.) with the recommended manufacturer's settings. cAMP concentrations were determined by reference to a calibration curve determined in the same experiment using standard cAMP concentrations (made up in lysis buffer in a 96-well tissue-culture-treated plate and frozen/thawed alongside the test samples) and detected using the same protocol. Concentration response curves for agonists were constructed to determine both the pEC50 and Intrinsic Activity.

β2 receptor [2] = biological target: T1, β2 receptor; assay: Alternative adrenergic β2 mediated cAMP production in H292 cells (60 minutes with test compound); format: cell-based
Protocol: Alternative Adrenergic (β2 Mediated cAMP Production
H292 cells were grown in 225 cm2 flasks incubator at 37° C., 5% CO2 in RPMI medium containing, 10% (v/v) FBS (foetal bovine serum) and 2 mM L-glutamine.
Adherent H292 cells were removed from tissue culture flasks by treatment with Accutase™ cell detachment solution for 15 minutes. Flasks were incubated for 15 minutes in a humidified incubator at 37° C., 5% CO2. Detached cells were re-suspended in RPMI media (containing 10% (v/v) FBS and 2 mM L-glutamine) at 0.05×10^6 cells per mL. 5000 cells in 100 μL were added to each well of a tissue-culture-treated 96-well plate and the cells incubated overnight in a humidified incubator at 37° C., 5% CO2. The culture media was removed and cells were washed twice with 100 μL assay buffer and replaced with 50 μL assay buffer (HBSS solution containing 10 mM HEPES pH7.4 and 5 mM glucose). Cells were rested at room temperature for 20 minutes after which time 25 μL of rolipram (1.2 mM made up in assay buffer containing 2.4% (v/v) dimethylsulphoxide) was added. Cells were incubated with rolipram for 10 minutes after which time test compounds were added and the cells were incubated for 60 minutes at room temperature. The final rolipram concentration in the assay was 300 μM and final vehicle concentration was 1.6% (v/v) dimethylsulphoxide. The reaction was stopped by removing supernatants, washing once with 100 μL assay buffer and replacing with 50 μL lysis buffer. The cell monolayer was frozen at −80° C. for 30 minutes (or overnight).
as §1, with “using” for “using the”, “pre-incubated” for “(containing equal volumes of donor beads (pre-incubated”, “cAMP,” for “cAMP in the dark for 30 minutes) and acceptor beads),”, “concentrations.” for “concentrations (made up in lysis buffer in a 96-well tissue-culture-treated plate and frozen/thawed alongside the test samples) and detected using the same protocol.”, “constructed and data was fitted to a four parameter logistic equation” for “constructed”, “Activity. […]” for “Activity.”

T1 sequence (P07550 whole entry): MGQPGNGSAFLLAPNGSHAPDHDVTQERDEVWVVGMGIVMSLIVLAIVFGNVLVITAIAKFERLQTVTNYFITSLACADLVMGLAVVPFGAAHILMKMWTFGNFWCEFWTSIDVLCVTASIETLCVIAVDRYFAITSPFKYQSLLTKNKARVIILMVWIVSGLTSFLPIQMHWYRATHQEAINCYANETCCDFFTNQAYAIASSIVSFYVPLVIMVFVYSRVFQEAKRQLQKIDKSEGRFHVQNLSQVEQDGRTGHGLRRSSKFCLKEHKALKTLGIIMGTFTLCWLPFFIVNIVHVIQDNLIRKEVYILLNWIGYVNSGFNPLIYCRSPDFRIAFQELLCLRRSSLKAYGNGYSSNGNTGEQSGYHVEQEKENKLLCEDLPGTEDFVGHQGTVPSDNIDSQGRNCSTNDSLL

EC50 (β2 receptor [1]; cAMP, 10 minutes incubation with compound, 300 μM rolipram): 2.51 nM
Intrinsic Activity (β2 receptor [1]; fraction relative to the maximum activity determined for formoterol, 10 minutes incubation): 1.1
EC50 (β2 receptor [2]; cAMP, 60 minutes incubation with compound, 300 μM rolipram, read-out: β2 pEC50 (converted)): 3.98 nM
β2 Int Act (β2 receptor [2]; fraction relative to the maximum activity determined for formoterol, 60 minutes incubation): 1
Compound: CCN(CC)CCN(CCNC[C@H](O)c1ccc(O)c2[nH]c(=O)sc12)C(=O)CCOCCc1ccccc1 [Example 7, N-[2-(Diethylamino)ethyl]-N-(2-{[(2R)-2-hydroxy-2-(4-hydroxy-2-oxo-2,3-dihydro-1,3-benzothiazol-7-yl)ethyl]amino}ethyl)-3-(2-phenylethoxy)propanamide]
